Source: BindingDB's records for patent US10981904 (Cancer Research Technology, 2021)

Target: T1, Glutaminase kidney isoform, mitochondrial [63-669] (Homo sapiens, UniProt O94925)
T1 sequence (O94925 whole entry): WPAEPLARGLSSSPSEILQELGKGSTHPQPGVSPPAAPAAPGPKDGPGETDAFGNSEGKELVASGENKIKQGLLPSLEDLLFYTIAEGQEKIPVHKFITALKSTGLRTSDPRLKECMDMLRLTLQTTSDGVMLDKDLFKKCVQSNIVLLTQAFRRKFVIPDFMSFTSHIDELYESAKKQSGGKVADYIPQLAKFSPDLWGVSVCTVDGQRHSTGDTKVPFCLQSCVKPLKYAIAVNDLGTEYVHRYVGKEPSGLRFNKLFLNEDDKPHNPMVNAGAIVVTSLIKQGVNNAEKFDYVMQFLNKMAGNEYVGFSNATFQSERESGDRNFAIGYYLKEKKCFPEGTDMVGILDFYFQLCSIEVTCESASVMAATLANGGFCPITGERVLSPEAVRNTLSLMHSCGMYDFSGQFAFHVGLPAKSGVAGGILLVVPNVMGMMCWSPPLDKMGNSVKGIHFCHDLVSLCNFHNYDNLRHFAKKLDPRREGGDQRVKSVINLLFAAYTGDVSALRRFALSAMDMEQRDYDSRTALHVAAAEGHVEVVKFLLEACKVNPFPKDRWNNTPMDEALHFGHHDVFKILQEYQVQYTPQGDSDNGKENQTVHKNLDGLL
Assay: GLS Enzyme Potency Assay
Procedure: A Glutamate Oxidase/AmplexRed coupled assay was used to measure the ability of compounds to bind to and inhibit the activity of GLS1 in vitro. […] GLS1 was diluted to 2× working concentration and incubated at room temperature to allow the tetrameric/dimeric forms to reach steady state. Assay measurements were performed in buffer comprising 50 mM TRIS pH 7.8, 100 mM NaPO4, pH 7.8, 0.001% v/v Tween20. […] DMSO concentration was maintained at 2% by back filling with DMSO solution. […] 3 μL of 100 mM glutamine diluted in assay buffer was then added and the reaction incubated at room temperature for 60 minutes. […] An artefact version of the assay where the 6His tagged GLS protein and glutamine were replaced with assay buffer was also used to rule out non specific effects on the assay components.

SMILES	IC50
COC1CN(c2cc([C@H](OC)C(=O)Nc3nnc(N[C@@H]4CCN(c5cccnn5)C4)s3)ccc2F)C1 [US10981904, Example 7(b)]	192 nM
CO[C@H](C(=O)Nc1nnc(N[C@@H]2CCN(c3cccnn3)C2)s1)c1ccccc1C1COC1 [US10981904, Example 25]	1840 nM
